Assay results reported in article PMC7217877, “N-AS-triggered SPMs are direct regulators of microglia in a model of Alzheimer’s disease” (Nature Communications, 2020).
Several values for one entry are separate records, joined by “and”; a condition that tells them apart may be missing. Equal entries are not always repeated.

Columns and labels:
[1] = system: immortalized human microglia; experiment: live-cell phagocytosis assay (bead uptake, Supplementary Fig 6e,f); assay type: cell-based
Description: Live-cell phagocytosis assays were performed according to previously described procedures with minor modifications. Briefly, in a glass bottom cell culture dish (SPL, 101350), adult SV40 immortalized human microglia cells (Applied Biologics Materials, T0251) were seeded for phagocytosis assay. […] After incubation, the microglia were treated with 0 or 2.5 μM N-AS (Sigma-Aldrich, 01912) at 37 °C for 2 h. FITC beads (Invitrogen) preopsonized in FBS (Gibco) were added at a concentration at 0.01% and then immediately observed using a laser scanning confocal microscope equipped with a live cell chamber system (FV3000, Olympus) for 2 h. Confocal images were collected every 5 min for 2 h and analyzed using the ImageJ software (National Institutes of Health).

COX2 = target: T1, COX2 (Homo sapiens, UniProt P35354); experiment: S565 acetylation of recombinant COX2 (ac-S565 western blot, LC-MS/MS of acetylated site); assay type: biochemical; parameters: purchased LSBio LS-G21094; conditions: 2 mM; vs naive and aspirin-treated COX2
T1 sequence (P35354 18-604): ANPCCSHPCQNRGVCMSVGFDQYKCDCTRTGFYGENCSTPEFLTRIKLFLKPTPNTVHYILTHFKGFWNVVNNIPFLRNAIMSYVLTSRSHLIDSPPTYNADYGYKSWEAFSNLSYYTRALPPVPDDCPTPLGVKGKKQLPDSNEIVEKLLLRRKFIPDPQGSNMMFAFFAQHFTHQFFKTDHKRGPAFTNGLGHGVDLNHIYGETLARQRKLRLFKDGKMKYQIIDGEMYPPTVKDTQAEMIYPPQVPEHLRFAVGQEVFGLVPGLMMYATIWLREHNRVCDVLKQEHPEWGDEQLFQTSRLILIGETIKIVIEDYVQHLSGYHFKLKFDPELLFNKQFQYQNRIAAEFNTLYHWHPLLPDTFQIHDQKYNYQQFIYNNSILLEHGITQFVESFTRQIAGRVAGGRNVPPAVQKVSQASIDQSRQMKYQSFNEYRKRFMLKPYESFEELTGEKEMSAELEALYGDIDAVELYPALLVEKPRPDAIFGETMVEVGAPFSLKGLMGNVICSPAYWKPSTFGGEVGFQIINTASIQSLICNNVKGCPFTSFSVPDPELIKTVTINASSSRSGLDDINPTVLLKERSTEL
Description: To identify the acetylation site of COX2, N-AS (Sigma-Aldrich, 01912)-treated COX2 enzymes (LSBio, LS-G21094) were immediately precipitated with trichroloacetic acid (Merck) and dried. The dried extract was resuspended in 10 μl of 5 M Urea solution and incubated with 1 μg sequencing-grade modified porcine trypsin (Promega) in 0.1 M ammonium bicarbonate buffer at 37 °C for 16 h. The sample was then treated with 1 M DTT (GE Healthcare) at RT for 1 h, followed by alkylation with 1 M iodoacetamide (Sigma-Aldrich) for 1 h. For sequencing, the protein samples were loaded onto a ZORBAX 300SB-C18 column (3.5 μm, 1.0 mm i.d. × 150 mm, Agilent). The column was placed in-line with an UltiMate 3000 system (Dionex, USA) and a splitter system was used to achieve a flow rate of 100 μl min^−1. Analytes were eluted with a mobile phase consisting of water: formic acid (100:0.2 v/v) (phase A) and acetonitrile: formic acid (100:0.2 v/v) (phase B) in gradient elution mode for 77 min. […]
Samples were lysed in RIPA buffer (Cell signaling Technologies), then subjected to SDS-PAGE and transferred to a nitrocellulose membrane. […] We performed densitometric quantification using the ImageJ software (National Institutes of Health). […]

- ac-S565 signal in western blot of recombinant COX2 (COX2): strong ac-S565-positive signals
SMILES: CCCCCCCCCCCCC/C=C/[C@@H](O)[C@H](CO)NC(C)=O [N-AS, N-((2S,3R,E)-1,3-Dihydroxyoctadec-4-en-2-yl)acetamide]
- phagocytosis capacity, in words ([1]; Aβ-treated human microglia + N-AS): improved SPM production and phagocytosis capacity
- Final number of beads per cell (at 120 min) ([1]; human microglia, Ab 0mM, sFig 6f): 20 and 14 and 16 and 11 and 13 and 15
